The values below come from PubChem BioAssay (NCI).

Assay in all cases: growth of human tumour cells (NCI), 48 h
Experiment [1] relates to U251 CNS.
Experiment [2] relates to HCC-2998 colon.
Experiment [3] deals with HOP-62 NSCLC.
Experiment [4] relates to SN12C renal.
The subject of experiment [5] is HOP-92 NSCLC.
The subject of experiment [6] is CAKI-1 renal.
In experiment [7] the test system is KM12 colon.
The subject of experiment [8] is UACC-62 melanoma.
Experiment [9] concerns A549 NSCLC.
Experiment [10] relates to MCF7 breast.

The structures appear in SMILES notation.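 The compound was tested at five concentrations on cells cultured in 96-well plates, with a 48-hour exposure period. GI50 = concentration required for 50% inhibition of growth. The concentration for full growth arrest is given as TGI.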

Consider `CCOP(=O)(OCC)C(Nc1ccc(Cl)cc1)c1ccc(F)cc1` (stereo unspecified), for which the TGI was found to be 41.3 µM in [1]; 59.1 µM in experiment [2]; 48.2 µM in [3]; 53.2 µM in experiment [4]; 59.1 µM in [5]; 83.6 µM in [6]. Further, the TGI in [7] was above 100 µM; in experiment [8] it was 29.3 µM; in experiment [9] it was above 100 µM.
As for `CCOC(=O)c1sc2nc(SC)nc3c2c1NCN3C`, the TGI in [1] is 46.9 µM; in experiment [2], above 100 µM; in experiment [3], 47.2 µM; in experiment [4], above 100 µM; in experiment [5] it was 27.9 µM; in experiment [6], above 100 µM. The TGI in experiment [7], in experiment [8] and in experiment [9] was above 100 µM in each case.
Consider `Cc1cc(C)[n+]2c(c1)C=CC2`, for which the TGI in [1], in experiment [2], in [3], in experiment [4], in experiment [5] and in [6] was above 100 µM in each case. Moreover, the TGI in experiment [7] and in [9] was above 100 µM in each case.
For `O=C(O)C(Cc1ccccc1)Cc1ccccc1`, the TGI in experiment [1], in experiment [3], in experiment [4], in experiment [6], in experiment [7] and in [8] was above 100 µM in each case. For the same compound, the TGI in experiment [10] and in experiment [9] was above 100 µM each time.
Regarding `Clc1ccc(C2SCc3nc4ccccc4n32)cc1` (stereo unspecified), the TGI in [1] was determined as 66.2 µM; in [4] it was 42.7 µM; in experiment [5], 22.3 µM; in [6], 73.9 µM; in experiment [8], 43.6 µM.
As for `O=C(CSc1nc2ccc(I)cc2c(=O)n1Cc1ccccc1)Nc1ccccc1`, the TGI in [1] was 48.8 µM; in experiment [3], 26.7 µM; in experiment [4], above 100 µM; in [5] it was 75 µM; in [6] it was above 100 µM; in experiment [7], above 100 µM. Besides, the TGI in experiment [8], in [10] and in experiment [9] was above 100 µM throughout.
Consider `OCc1ccc2c(c1)CC1(Cc3ccccc3C1)C2`, for which the TGI in [2] is above 100 µM; in [3] it was above 100 µM; in experiment [4], 45.8 µM; in experiment [5], 38 µM; in experiment [6], 50.5 µM; in experiment [7] it was 57.3 µM. Moreover, the TGI was 60.2 µM in experiment [8] and 71.2 µM in experiment [9].
For `O=S(=O)(O)c1ccc(O)c(N=Nc2c(O)ccc3ccccc23)c1`, the TGI in experiment [1], in [3], in experiment [4], in [5], in experiment [6] and in experiment [7] was above 100 µM throughout. The TGI in experiment [8] and in experiment [9] was above 100 µM each time.
Turning to `Cc1nc(N)c(N2CCN(S(=O)(=O)N(Cc3ccccc3)Cc3ccccc3)CC2)c(=O)[nH]1`, the TGI in experiment [1] is 36.8 µM; in [2], above 100 µM; in [3] it was 83.5 µM; in experiment [4], 80.7 µM; in experiment [7], above 100 µM; in experiment [10] it was above 100 µM. Moreover, in experiment [9], the TGI is above 100 µM.
For the compound `C=C(C)C1(Sc2ccc(OC)cc2)CC1`, the TGI in experiment [1] was above 100 µM; in experiment [2], 34.2 µM; in experiment [3], above 100 µM; in experiment [4] it was 35.4 µM; in [6], above 100 µM; in [7], above 100 µM. Moreover, the TGI in experiment [8], in experiment [10] and in experiment [9] was above 100 µM throughout.
Consider `CC1CN(c2cc3c(cc2F)c(=O)c(C(=O)O)cn3-c2ccc(N3CCN(C)CC3)cn2)CC(C)N1` (stereo unspecified), for which the TGI in experiment [1], in [3], in experiment [4], in experiment [5], in [6] and in [7] was above 100 µM throughout. Further, the TGI in experiment [8], in [10] and in [9] was above 100 µM throughout.
As to `CC(C)OC1=C(CC2(C)OCCO2)C(=O)C12OCCO2`, the TGI in experiment [1], in [3], in experiment [4], in experiment [5], in experiment [6] and in [7] was above 100 µM throughout. Further, the TGI in experiment [8], in experiment [10] and in [9] was above 100 µM throughout.
As to `COP(=O)(CP(=O)(OC)OCCC(C)CCC=C(C)C)OC` (stereo unspecified), the TGI in experiment [1] was 87.8 µM; in [2], above 100 µM; in experiment [3] it was above 100 µM; in experiment [4], above 100 µM; in experiment [6], above 100 µM; in experiment [7], above 100 µM. Besides, the TGI in [10] and in experiment [9] was above 100 µM in each case.
For the compound `CC(=O)/C=C(/C)[O-].CC(=O)/C=C(/C)[O-].CC(=O)[CH-]C(C)=O.CC(=O)[CH-]C(C)=O.[Zr+4]`, the GI50 in [1], in experiment [2], in experiment [3], in [4], in [7] and in experiment [8] was above 100 µM each time. Further, the TGI in experiment [1], in experiment [2], in experiment [3], in experiment [4], in experiment [7] and in experiment [8] was above 100 µM each time.
As to `N#CC1=C(O)NC(O)=C(C#N)C1c1c(Cl)cccc1Cl`, the TGI in [1] is above 100 µM; in experiment [2] it was 60 µM; in experiment [3], 67.8 µM; in experiment [4], above 100 µM; in experiment [5], 43.9 µM; in experiment [6], above 100 µM. The figures for the TGI in experiment [7], in experiment [8] and in experiment [9] were 71.5 µM, above 100 µM and above 100 µM, respectively.
Regarding `CCn1c(CCCc2nc3c([nH]2)c(=O)n(C)c(=O)n3C)nc2c1c(=O)n(C)c(=O)n2C`, the TGI in experiment [1], in [2], in experiment [3], in [4], in experiment [6] and in [7] was above 100 µM each time. The TGI in experiment [8], in experiment [10] and in [9] was above 100 µM throughout.
